Where two headings read alike, the source gives them in different places.
Legend:
[1] = test system: VEGF-induced CTGF mRNA expression; assay: Effect on VEGF-induced CTGF mRNA expression in BREC; type: cell-based, bovine
Procedure: (§1) H) Northern Blot Analysis—Total RNA was isolated using acid-guanidinium thiocyanate, and Northern blot analysis was performed. Total RNA (20 μg) was electrophoresed through 1% formaldehyde-agarose gels and then transferred to a nylon membrane. ^32P-Labeled cDNA probes were generated by use of labeling kits (Megaprime DNA labeling systems, Amersham Pharmacia Biotech). After ultraviolet cross-linking using a UV cross-linker (Stratagene, La Jolla, Calif.), blots were pre-hybridized, hybridized, and washed in 0.5×SSC, 5% SDS at 65° C. with 4 changes over 1 h. All signals were analyzed using a PhosphorImager, and lane loading differences were normalized.
(§2) I) Analysis of CTGF mRNA Half-life—CTGF mRNA half-life experiments were carried out using BREC and BRPC. […] Transcription was inhibited by the addition of actinomycin D (5 μg/ml).

[2] = test system: VEGF-induced CTGF mRNA expression; assay: Effect on VEGF-induced CTGF mRNA expression in BRPC; type: cell-based, bovine; conditions: for effect on VEGF-induced CTGF mRNA expression: pretreatment GF 109203X 1 μM or PD98059 20 μM
Procedure: as §1, §2

CTGF mRNA [3] = assay: CTGF mRNA expression by Northern blot analysis in BREC; type: cell-based, bovine; conditions: for CTGF mRNA levels increase (comparative study): VEGF 25 ng/ml, TGF-β1 10 ng/ml
Procedure: (§3) Since BREC and BRPC may express both KDR and Flt1, we examined the effects of P1GF, a Flt1-specific ligand, on the induction of CTGF gene expression in vascular cells.
(§4) B) Cell Culture—Primary cultures of bovine retinal endothelial cells (BREC) and pericytes (BRPC) were isolated by homogenization and a series of filtration steps as described previously. BREC were subsequently cultured with endothelial cell basal medium supplemented with 10% plasma-derived horse serum, 50 mg/liter heparin, and 50 μg/ml endothelial cell growth factor. BRPC were cultured in Dulbecco's modified Eagle's medium with 5.5 mM glucose and 20% fetal bovine serum. Cells were cultured in 5% CO2 at 37° C., and media were changed every 3 days. Cells were characterized for their homogeneity by immunoreactivity with anti-factor VIII antibody for BREC and with monoclonal antibody 3G5 for BRPC. […] Only cells from passages 2 through 7 were used for the experiments.
as §1

CTGF protein [4] = assay: CTGF protein expression by Western blot analysis in BREC; type: cell-based, bovine; conditions: for CTGF protein expression increase: VEGF 25 ng/ml, TGF-β1 10 ng/ml
Procedure: (§5) E) Western Blot Analysis—Immunoprecipitated proteins or 30 μg of total cell lysates were subjected to SDS-gel electrophoresis and electrotransferred to nitrocellulose membrane (Bio-Rad). The membrane was soaked in blocking buffer (phosphate-buffered saline containing 0.1% Tween 20 and 5% bovine serum albumin) for 1 h at room temperature and incubated with primary antibody overnight at 4° C. followed by incubation with horseradish peroxidase-conjugated secondary antibody (Amersham Pharmacia Biotech). Visualization was performed using the enhanced chemiluminescence detection system (ECL, Amersham Pharmacia Biotech) per the manufacturer's instructions.

CTGF mRNA [5] = assay: CTGF mRNA expression by Northern blot analysis in BRPC; type: cell-based, bovine; conditions: for CTGF mRNA levels, maximum increase: 25 ng/ml, after 9 h
Procedure: as §3, §4, §1

Flt1 [6] = biological target: Flt1 (Homo sapiens, UniProt P17948); conditions: known value; cited from earlier work
Chain of Flt1 (Homo sapiens, UniProt P17948) (P17948 27-1338, species assumed): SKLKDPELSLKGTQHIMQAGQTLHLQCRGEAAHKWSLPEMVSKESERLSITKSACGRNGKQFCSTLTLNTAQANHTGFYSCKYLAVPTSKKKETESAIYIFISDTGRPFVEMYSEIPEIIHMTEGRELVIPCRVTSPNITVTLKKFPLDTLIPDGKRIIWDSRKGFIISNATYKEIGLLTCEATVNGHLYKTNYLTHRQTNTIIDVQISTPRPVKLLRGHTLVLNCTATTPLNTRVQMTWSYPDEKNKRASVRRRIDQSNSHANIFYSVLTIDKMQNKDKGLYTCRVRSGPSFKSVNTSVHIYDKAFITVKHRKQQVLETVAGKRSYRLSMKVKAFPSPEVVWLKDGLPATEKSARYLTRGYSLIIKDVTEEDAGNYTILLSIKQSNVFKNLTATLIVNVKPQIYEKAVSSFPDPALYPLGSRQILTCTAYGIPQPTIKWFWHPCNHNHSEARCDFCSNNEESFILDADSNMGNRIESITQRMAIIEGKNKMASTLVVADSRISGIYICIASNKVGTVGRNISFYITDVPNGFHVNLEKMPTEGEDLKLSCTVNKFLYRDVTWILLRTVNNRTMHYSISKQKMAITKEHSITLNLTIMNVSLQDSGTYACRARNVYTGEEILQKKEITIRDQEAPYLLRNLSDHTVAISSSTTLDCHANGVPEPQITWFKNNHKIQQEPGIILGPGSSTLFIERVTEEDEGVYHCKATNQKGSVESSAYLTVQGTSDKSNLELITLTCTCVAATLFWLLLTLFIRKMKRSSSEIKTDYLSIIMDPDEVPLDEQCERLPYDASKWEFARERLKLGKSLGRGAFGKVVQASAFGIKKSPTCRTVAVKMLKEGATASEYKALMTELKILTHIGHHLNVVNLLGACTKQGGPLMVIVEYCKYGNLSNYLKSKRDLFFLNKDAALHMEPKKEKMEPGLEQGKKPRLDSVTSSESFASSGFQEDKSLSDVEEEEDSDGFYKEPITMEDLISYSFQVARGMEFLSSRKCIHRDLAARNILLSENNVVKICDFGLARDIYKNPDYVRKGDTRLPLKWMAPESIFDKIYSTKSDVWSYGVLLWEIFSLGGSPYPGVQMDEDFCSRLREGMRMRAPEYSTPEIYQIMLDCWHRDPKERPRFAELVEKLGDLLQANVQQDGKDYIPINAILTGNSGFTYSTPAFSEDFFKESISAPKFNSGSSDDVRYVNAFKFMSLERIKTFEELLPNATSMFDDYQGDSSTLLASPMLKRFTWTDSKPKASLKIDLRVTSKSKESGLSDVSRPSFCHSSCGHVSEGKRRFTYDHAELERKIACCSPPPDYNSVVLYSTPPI

Flt1 [7] = biological target: T1, Flt1 (Bos taurus, UniProt F1MDD9); assay: Immunoblot of Flt1 immunoprecipitates from BRPC (phosphotyrosine, PI3-kinase p85); type: cell-based, bovine
T1 construct: endogenous in cells; host or cells: primary bovine retinal pericytes (BRPC)
T1 sequence (F1MDD9 1-1251): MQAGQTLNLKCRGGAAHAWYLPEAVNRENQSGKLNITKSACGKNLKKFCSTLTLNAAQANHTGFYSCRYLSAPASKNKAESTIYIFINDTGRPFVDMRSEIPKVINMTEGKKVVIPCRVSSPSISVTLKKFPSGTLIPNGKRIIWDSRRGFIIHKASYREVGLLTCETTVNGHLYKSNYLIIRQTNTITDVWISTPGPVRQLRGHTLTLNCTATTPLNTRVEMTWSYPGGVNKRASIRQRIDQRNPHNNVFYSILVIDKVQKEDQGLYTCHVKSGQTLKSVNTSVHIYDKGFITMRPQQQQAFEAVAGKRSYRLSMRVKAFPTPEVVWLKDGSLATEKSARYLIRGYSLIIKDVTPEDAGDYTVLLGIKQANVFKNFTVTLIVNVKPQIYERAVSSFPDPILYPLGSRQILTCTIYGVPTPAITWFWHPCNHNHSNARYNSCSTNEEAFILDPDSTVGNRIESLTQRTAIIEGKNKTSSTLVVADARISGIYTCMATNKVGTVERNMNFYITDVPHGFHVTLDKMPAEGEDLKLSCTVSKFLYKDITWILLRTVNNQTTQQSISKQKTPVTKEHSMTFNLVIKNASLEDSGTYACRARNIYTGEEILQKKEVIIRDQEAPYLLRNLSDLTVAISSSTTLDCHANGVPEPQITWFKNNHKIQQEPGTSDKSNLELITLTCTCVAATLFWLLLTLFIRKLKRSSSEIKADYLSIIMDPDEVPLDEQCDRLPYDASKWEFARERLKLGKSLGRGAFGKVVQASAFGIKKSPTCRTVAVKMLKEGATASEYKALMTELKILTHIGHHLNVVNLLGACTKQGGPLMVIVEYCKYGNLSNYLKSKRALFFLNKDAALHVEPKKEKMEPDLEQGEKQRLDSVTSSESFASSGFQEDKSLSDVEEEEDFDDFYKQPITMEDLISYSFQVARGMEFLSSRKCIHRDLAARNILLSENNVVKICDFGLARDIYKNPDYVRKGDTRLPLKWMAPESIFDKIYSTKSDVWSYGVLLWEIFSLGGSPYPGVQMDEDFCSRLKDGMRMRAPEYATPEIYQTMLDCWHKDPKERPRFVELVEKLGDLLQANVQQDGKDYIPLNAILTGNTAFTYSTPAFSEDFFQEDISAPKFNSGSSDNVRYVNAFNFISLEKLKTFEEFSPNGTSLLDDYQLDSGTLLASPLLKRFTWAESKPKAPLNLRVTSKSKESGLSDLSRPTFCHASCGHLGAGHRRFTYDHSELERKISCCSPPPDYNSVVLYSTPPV
Procedure: (§6) D) Immunoprecipitation—Cells were washed three times with cold phosphate-buffered saline and solubilized in 200 μl of lysis buffer (1% Triton X-100, 50 mmol/liter HEPES, 10 mmol/liter EDTA, 10 mmol/liter sodium pyrophosphate, 100 mmol/liter sodium fluoride, 1 mmol/liter sodium orthovanadate, 1 μg/ml aprotinin, 1 μg/ml leupeptin, and 2 mmol/liter phenylmethylsulfonyl fluoride). After centrifugation at 12,000 rpm for 10 min, 1.0 mg of protein was subjected to immunoprecipitation. To clear the protein extract, protein A-Sepharose (20 μl of a 50% suspension) was added to the cell lysates, after which they were incubated for 1 h, followed by centrifugation and collection of the supernatant. A specific rabbit anti-KDR or Flt1 antibody was added and rocked at 4° C. for 2 h; 20 μl of protein A-Sepharose was then added, and the sample was rocked for another 2 h at 4° C. For denaturation, protein A-Sepharose antigen-antibody conjugates were separated by centrifugation, washed five times, and boiled for 3 min in Laemmli sample buffer.

KDR = biological target: T2, KDR (Bos taurus, UniProt A0AAA9SPC9); assay: Immunoblot of KDR immunoprecipitates from BREC (phosphotyrosine, PI3-kinase p85); type: cell-based, bovine
T2 construct: endogenous in cells; host or cells: primary bovine retinal endothelial cells (BREC)
T2 sequence (A0AAA9SPC9 20-1356): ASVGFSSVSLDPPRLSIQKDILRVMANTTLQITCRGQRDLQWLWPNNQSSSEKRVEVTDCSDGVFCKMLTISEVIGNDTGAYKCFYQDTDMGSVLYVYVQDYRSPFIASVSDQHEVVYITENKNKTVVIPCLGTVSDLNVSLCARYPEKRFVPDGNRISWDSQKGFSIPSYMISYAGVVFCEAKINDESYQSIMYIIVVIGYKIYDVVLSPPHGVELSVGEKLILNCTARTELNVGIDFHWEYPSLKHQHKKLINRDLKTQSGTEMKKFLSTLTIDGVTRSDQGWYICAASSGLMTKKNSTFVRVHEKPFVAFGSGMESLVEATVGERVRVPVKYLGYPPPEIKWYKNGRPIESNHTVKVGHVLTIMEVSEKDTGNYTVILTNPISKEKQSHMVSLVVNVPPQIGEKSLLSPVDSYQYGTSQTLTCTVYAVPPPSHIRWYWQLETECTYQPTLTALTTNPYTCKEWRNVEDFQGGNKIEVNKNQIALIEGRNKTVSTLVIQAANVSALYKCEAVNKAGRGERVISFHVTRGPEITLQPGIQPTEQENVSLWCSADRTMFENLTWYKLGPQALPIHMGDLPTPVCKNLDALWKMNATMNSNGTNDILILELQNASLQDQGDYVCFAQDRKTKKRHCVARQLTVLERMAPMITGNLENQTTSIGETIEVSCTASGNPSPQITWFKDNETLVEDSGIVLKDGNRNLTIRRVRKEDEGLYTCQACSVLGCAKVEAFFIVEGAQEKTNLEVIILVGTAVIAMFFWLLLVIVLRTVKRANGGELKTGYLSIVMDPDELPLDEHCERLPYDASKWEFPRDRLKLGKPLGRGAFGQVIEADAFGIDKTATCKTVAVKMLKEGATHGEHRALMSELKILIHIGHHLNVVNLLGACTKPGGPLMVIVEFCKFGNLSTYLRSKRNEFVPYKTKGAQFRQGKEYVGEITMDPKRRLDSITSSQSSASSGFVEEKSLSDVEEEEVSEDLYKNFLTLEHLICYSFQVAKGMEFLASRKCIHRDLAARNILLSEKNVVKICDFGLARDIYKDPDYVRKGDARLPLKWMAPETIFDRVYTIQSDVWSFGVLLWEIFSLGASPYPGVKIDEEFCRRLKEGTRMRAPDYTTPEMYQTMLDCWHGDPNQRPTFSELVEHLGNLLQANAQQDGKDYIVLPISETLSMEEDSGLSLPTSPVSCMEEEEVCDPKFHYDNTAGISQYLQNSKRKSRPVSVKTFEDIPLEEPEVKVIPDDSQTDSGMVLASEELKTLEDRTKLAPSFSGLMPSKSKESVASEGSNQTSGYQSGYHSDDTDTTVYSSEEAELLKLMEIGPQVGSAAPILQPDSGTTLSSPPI
Procedure: as §6, §5

Erk = test system: Erk
Procedure: as §5

Akt = test system: Akt
Procedure: as §5

CTGF protein [8] = conditions: BRPC, 25 ng/ml, after 10 h
Procedure: as §5

[9] = biological target: KDR/Flk1 (VEGFR2) (bovine); assay: cell-based or functional assay
Flt1 (VEGFR1) (bovine) = assay: cell-based or functional assay
[10] = cycloheximide 10 μg/ml, VEGF 25 ng/ml, 6 h
[11] = inhibitor pretreatment (wortmannin 100 nM), VEGF 25 ng/ml 6 h
[12] = VEGF 25 ng/ml + cycloheximide 10 μg/ml, 6 h

C[C@@H]1C[C@@H]([C@H](O)CC2CC(=O)NC(=O)C2)C(=O)[C@@H](C)C1 [Cycloheximide, cycloheximide]
effect on VEGF-induced increase of CTGF mRNA [1, 10]: did not prevent
effect on VEGF-induced increase of CTGF mRNA [2, 10]: did not prevent

CN(C)CCCn1cc(C2=C(c3c[nH]c4ccccc34)C(=O)NC2=O)c2ccccc21 [GF 109203X]
effect on VEGF-induced CTGF mRNA expression ([1]; pretreatment GF 109203X 1 μM or PD98059 20 μM, VEGF 25 ng/ml 6 h): Neither GF 109203X nor PD98059 had significant effects
effect on VEGF-induced CTGF mRNA expression ([2]; VEGF 25 ng/ml 6 h): Neither GF 109203X nor PD98059 had significant effects

COc1cccc(-c2cc(=O)c3ccccc3o2)c1N [PD98059]
effect on VEGF-induced CTGF mRNA expression ([2]; VEGF 25 ng/ml 6 h): Neither GF 109203X nor PD98059 had significant effects

COC[C@H]1OC(=O)c2coc3c2[C@@]1(C)C1=C(C3=O)[C@@H]2CCC(=O)[C@@]2(C)C[C@H]1OC(C)=O [wortmannin]
inhibition of the effects of VEGF on CTGF mRNA expression [1, 11]: 88±6.5%
inhibition of the effects of VEGF on CTGF mRNA expression [2, 11]: 78±22%

TGF-β1: transforming growth factor-β1, from R & D Systems
CTGF mRNA levels increase (comparative study) (CTGF mRNA [3]): 3.3±0.5 fold
CTGF protein expression increase (CTGF protein [4]): 2.8±0.8 fold

VEGF
CTGF mRNA levels, maximum increase (CTGF mRNA [5]): 2.0±0.22 fold
concentration of maximal increase of CTGF mRNA (CTGF mRNA [5]; 6 h of stimulation): 25 ng/mL
lowest concentration with significant increase of CTGF mRNA (CTGF mRNA [5]; 6 h of stimulation): 0.25 ng/mL
CTGF mRNA increase with cycloheximide, compared with cycloheximide alone (CTGF mRNA [5]; [12]): 2.5±0.40 fold
Kd (Flt1 [6]): 0.01 to 0.1 nM
interactions of Flt1 and p85 subunit of PI3-kinase (Flt1 [7]): increased
tyrosine phosphorylation of Flt1 (Flt1 [7]): increased
CTGF mRNA levels, maximum increase (CTGF mRNA [3]; 25 ng/ml, after 6 h): 3.1±0.70 fold
concentration of maximal increase of CTGF mRNA (CTGF mRNA [3]; 6 h of stimulation): 25 ng/mL
lowest concentration with significant increase of CTGF mRNA (CTGF mRNA [3]; 6 h of stimulation): 0.25 ng/mL
CTGF mRNA increase with cycloheximide, compared with cycloheximide alone (CTGF mRNA [3]; [12]): 2.4±0.41 fold
CTGF mRNA levels increase (comparative study) (CTGF mRNA [3]): 3.0±0.3 fold
level of CTGF protein (CTGF protein [4]; 25 ng/ml, after 10 h): increased
CTGF protein expression increase (CTGF protein [4]): 2.5±0.4 fold
interactions of KDR and p85 subunit of PI3-kinase (KDR): promoted
tyrosine phosphorylation of KDR (KDR): promoted
phosphorylation of Erk (Erk; BREC): 5.8 fold
Erk phosphorylation (Erk; BRPC): No effect
phosphorylation of Akt (Akt; BREC): 3.1 fold
phosphorylation of Akt (Akt; BRPC): 2.6 fold
level of CTGF protein (CTGF protein [8]): increased

Vascular endothelial growth factor (VEGF) (ligand)
CTGF mRNA (Northern blot, BREC, 25 ng/ml VEGF, maximum after 6 h) [9]: 3.1 fold
CTGF mRNA (Northern blot, BRPC, 25 ng/ml VEGF, maximum after 9 h) (Flt1 (VEGFR1) (bovine)): 2 fold

placenta growth factor (P1GF) (ligand)
CTGF mRNA (Northern blot, BRPC, 25 ng/ml P1GF, peak after 9 h) (Flt1 (VEGFR1) (bovine)): 1.9 fold

B1: P1GF: placenta growth factor, a Flt1 receptor-specific ligand, from R & D Systems (protein, UniProt P49763 19-221, looked up)
Placenta growth factor: LPAVPPQQWALSAGNGSSEVEVVPFQEVWGRSYCRALERLVDVVSEYPSEVEHMFSPSCVSLLRCTGCCGDENLHCVPVETANVTMQLLKIRSGDRPSYVELTFSQHVRCECRHSPGRQSPDMPGDFRADAPSFLPPRRSLPMLFRMEWGCALTGSQSAVWPSSPVPEEIPRMHPGRNGKKQQRKPLREKMKPERCGDAVPRR
CTGF mRNA levels, maximum increase (CTGF mRNA [5]): 1.9±0.30 fold
interactions of Flt1 and p85 subunit of PI3-kinase (Flt1 [7]): increased
tyrosine phosphorylation of Flt1 (Flt1 [7]): increased
CTGF mRNA levels after stimulation (CTGF mRNA [3]; 25 ng/ml): not affected
interactions of KDR and p85 subunit of PI3-kinase (KDR): not
tyrosine phosphorylation of KDR (KDR): not

Reference: patent publication US7175844B2, “Methods of modulating fibrosis” (Joslin Diabetes Center, Inc., priority 2000, dated 2007)
